# Experimental data from ChEMBL document CHEMBL1765077, “Nonterpenoid C15 acetogenins from Laurencia marilzae” (2011).
# Assays:
# Assay type in all cases: functional
# [1] = system: SW1573; experiment: Antiproliferative activity against human SW1573 cells after 48 hrs; details: SW1573, 48 h
# [2] = system: HeLa; experiment: Antiproliferative activity against human HeLa cells after 48 hrs
# [3] = system: HBL-100; experiment: Antiproliferative activity against human HBL100 cells after 48 hrs; details: HBL-100, 48 h
# [4] = system: A2780; experiment: Antiproliferative activity against human A2780 cells after 48 hrs; details: A2780, 48 h
# [5] = system: T47D; experiment: Antiproliferative activity against human T47D cells after 48 hrs
# [6] = system: WiDr; experiment: Antiproliferative activity against human WiDr cells after 48 hrs
GI50 [1],GI50 [2],GI50 [4],GI50 [5],Structure (SMILES),GI50 [3],GI50 [6]
> 10 µg/mL,> 10 µg/mL,> 10 µg/mL,> 10 µg/mL,COC(=O)/C=C\[C@H]1C[C@H]2O[C@@H](C[C@H]2Cl)[C@@H](Br)C[C@H]2O[C@@H]2[C@H](C)O1,> 10 µg/mL,> 10 µg/mL
> 10 µg/mL,> 10 µg/mL,> 10 µg/mL,> 10 µg/mL,C[C@H]1/C=C/C[C@H](Br)[C@@H]2C[C@@H](Cl)[C@@H](C[C@H](C=C=CBr)O1)O2 [OBTUSALLENE IV],> 10 µg/mL,> 10 µg/mL
> 10 µg/mL,> 10 µg/mL,> 10 µg/mL,> 10 µg/mL,C#C/C=C\CC(O)C(Cl)C/C=C\CC(Cl)C(Br)CC (mixture of isomers),> 10 µg/mL,> 10 µg/mL
> 10 µg/mL,> 10 µg/mL,> 10 µg/mL,> 10 µg/mL,C/C=C/[C@H]1C/C=C\C[C@@H](Cl)[C@@H](C[C@H](C=C=CBr)OC(C)=O)O1,> 10 µg/mL,> 10 µg/mL
> 10 µg/mL,> 10 µg/mL,> 10 µg/mL,> 10 µg/mL,C[C@@H]1O[C@@H](C=C=CBr)C[C@H]2O[C@@H](C[C@H]2Cl)[C@@H](Br)C[C@H]2O[C@H]12,> 10 µg/mL,> 10 µg/mL
> 10 µg/mL,> 10 µg/mL,> 10 µg/mL,> 10 µg/mL,C/C=C/[C@H]1C/C=C\C[C@@H](Cl)[C@@H](C[C@@H](O)C=C=CBr)O1 [MARILZALLENE],> 10 µg/mL,> 10 µg/mL
